Measurements as given in article PMC10975178, “Evaluation on the Potential for Hepatotoxic Components from Herba Epimedii to Induce Apoptosis in HepG2 Cells and the Analysis of the Influence of Metabolism in Liver Microsomes” (Molecules, 2024).

Tests used:
caspase-3 = test: Western blot, caspase-3 expression in HepG2 cells; type: cell-based; settings: 24 h, high concentration (sagittatoside A 49, icariside I 50, baohuoside I 32, icaritin 3.8 μg/mL), vs untreated cells
Description: (§1) To explore the mechanism of apoptosis induced by the hepatotoxic compounds, the expression of key proteins related to apoptosis, including Bax, Bcl-2, Caspase-3 and Caspase-9, was assessed by western blotting. HepG2 cells were treated with different concentrations of the hepatotoxic compounds for 24 h and collected with a cell scraper. The concentrations of sagittatoside A were set to 12.2, 24.5, and 49 μg/mL; those of icariside I were 12.5, 25, and 50 μg/mL; baohuoside I was used at 8, 16, and 32 μg/mL; and icaritin was tested at 0.9, 1.9 and 3.8 μg/mL. The cells were washed twice with PBS and lysed in total protein cell lysis buffer. Protein concentrations were determined using a BCA protein assay kit (Thermo Fisher Scientific, Waltham, MA, USA). Then, to destroy the 3-dimensional protein structure, the proteins in the loading buffer were heated at 95 °C for 5 min. An equal amount of protein from each sample was separated by SDS-PAGE on 10% SDS–polyacrylamide gels. After the protein was transferred to a polyvinylidene difluoride membrane (Millipore, Bedford, MA, USA), the membrane was incubated in blocking buffer (5% nonfat dairy milk in TBST) for 2 h and probed with various antibodies (1:1000) overnight at 4 °C. […] The changes in the protein expression levels are expressed as percentages relative to the levels measured in the corresponding control groups.

Bax/Bcl-2 = test: Western blot, Bax/Bcl-2 ratio in HepG2 cells; type: cell-based; settings: 24 h, high concentration (sagittatoside A 49, icariside I 50, baohuoside I 32, icaritin 3.8 μg/mL), vs untreated cells
Description: as §1

COc1ccc(-c2oc3c(CC=C(C)C)c(O)cc(O)c3c(=O)c2O)cc1 [icaritin]
caspase-3 expression (caspase-3): significant increase | Bax/Bcl-2 ratio (Bax/Bcl-2): increased

COc1ccc(-c2oc3c(CC=C(C)C)c(O)cc(O)c3c(=O)c2O[C@@H]2O[C@@H](C)[C@H](O)[C@@H](O)[C@H]2O)cc1 [baohuoside I]
caspase-3 expression (caspase-3): significant increase | Bax/Bcl-2 ratio (Bax/Bcl-2): increased
